# Measured values: patent publication US20250311722A1, “IMPROVED BIOCIDE” (Purgos ApS, priority 2022, published 2025)
# Columns and labels:
# [1] = system: bacteria; assay: APDEA in different PVB dispersions at 32° C., ATP analysis (LuminUltra); format: cell-based; parameters: bacteria count 6 mo after adding APDEA / bacteria count 1 d after adding APDEA / bacteria count 1 wk after adding APDEA / bacteria count 1 mo after adding APDEA / bacteria count 3 mo after adding APDEA: unit not given here
# Experimental: Tertiary amine, water and PVB-dispersion was mechanically stirred in IKA vertical fixed blade stirrer for sampling in 2-5 minutes. Conditions was industrial clean, meaning no special precautions was taken to prevent contamination, except normal cleanliness and between operations dishwashing procedures.
# Working temperatures was 20-25 degre Celsius, and all incubations was made in thermostatic 32-degree Celsius incubator ovens for bottled flasks and open petri dishes.
# Before measuring total ATP, the samples are shaken for 30 seconds in a mechanical mixer. 1 ml of each sample is used in the process of analysing total ATP. The protocol is provided by LuminUltra Technologies.
# The biocidal effectivity of APDEA in different PVB dispersions was measured as explained above in example 46. Incubation was done at 32° C. and sample tested 1 day (abbreviated as 1d in table XX), 1 week (abbreviated as 1 wk in table XX) and 1, 3 and 6 months (abbreviated as mo in tables XXIII and XXIV) after addition of APDEA.
# [2] = cited from earlier work
# [3] = system: rat; details: cited from earlier work
# [4] = system: bacteria; assay: 2,2′-(octylimino)bisethanol in contaminated solution of polyisocyanate crosslinker, 32° C., cATP (LuminUltra); format: cell-based; details: for bacteria count: 32° C.
# Experimental: For further analysing the biocidal effect of 2,2′-(octylimino)bisethanol, a solution of 2,2′-(octylimino)bisethanol was added into a contaminated solution of polyisocyanate crosslinker in two different concentrations of 0.50% and 1.00%, incubated at 32° C. and analysed for microbial activity and microbial contamination using […] Adenosine Triphosphate cATP as a measure of microbial contamination using LuminUltra® microbial monitoring system.
# [5] = system: bacteria; assay: 2,2′-(octylimino)bisethanol in common surfactant/soap, at 32° C., cATP (LuminUltra); format: cell-based
# Experimental: (§1) A solution of 2,2′-(octylimino)bisethanol was added to two different solutions comprising two different surfactants, in two different concentrations of 0.50% and 1.00%. The four different solutions incubated at 32° C. and analysed for microbial activity and microbial contamination using […] Adenosine Triphosphate cATP as a measure of microbial contamination using LuminUltra® microbial monitoring system (see e.g. Examples 1, 5 and 6). The results are summarized in tables XXV and XXVI, where “additive” refers to 2,2′-(octylimino)bisethanol.
# [6] = system: bacteria; assay: 2,2′-(octylimino)bisethanol in K-Oleate, incubated at 32° C., cATP (LuminUltra); format: cell-based
# Experimental: as §1
# [7] = 0.5% APDEA, PVB dispersion FX2, 32° C.
# [8] = 0.5% APDEA, PVB dispersion FX6, 32° C.
# [9] = 0.5% APDEA, PVB dispersion MW, 32° C.
# [10] = 0.5% APDEA, PVB dispersion SX2, 32° C.
# [11] = 0.5% APDEA, PVB dispersion WX2, 32° C.
# [12] = 0.5% APDEA, PVB dispersion WX25, 32° C.
# [13] = 1.0% APDEA, PVB dispersion FX2, 32° C.
# [14] = 1.0% APDEA, PVB dispersion FX6, 32° C.
# [15] = 1.0% APDEA, PVB dispersion MW, 32° C.
# [16] = 1.0% APDEA, PVB dispersion SX2, 32° C.
# [17] = 1.0% APDEA, PVB dispersion WX2, 32° C.
# [18] = 1.0% APDEA, PVB dispersion WX25, 32° C.
# [19] = 0.50% in common surfactant/soap
# [20] = 1.00% in common surfactant/soap
structure (smiles),measurement,setting,value
"NCCCN(CCO)CCO [APDEA, N-(3-Aminopropyl) diethanolamine]",bacteria count 1 mo after adding APDEA,[1]; [7],35
same,bacteria count 1 wk after adding APDEA,[1]; [7],73
same,bacteria count 3 mo after adding APDEA,[1]; [7],83
same,bacteria count 6 mo after adding APDEA,[1]; [7],195
same,bacteria count 1 d after adding APDEA,[1]; [7],25
same,bacteria count 1 mo after adding APDEA,[1]; [8],40
same,bacteria count 1 wk after adding APDEA,[1]; [8],33
same,bacteria count 3 mo after adding APDEA,[1]; [8],65
same,bacteria count 6 mo after adding APDEA,[1]; [8],96.6
same,bacteria count 1 d after adding APDEA,[1]; [8],71
same,bacteria count 1 mo after adding APDEA,[1]; [9],60
same,bacteria count 1 wk after adding APDEA,[1]; [9],33
same,bacteria count 3 mo after adding APDEA,[1]; [9],84
same,bacteria count 6 mo after adding APDEA,[1]; [9],45
same,bacteria count 1 d after adding APDEA,[1]; [9],82
same,bacteria count 1 mo after adding APDEA,[1]; [10],85
same,bacteria count 1 wk after adding APDEA,[1]; [10],66
same,bacteria count 3 mo after adding APDEA,[1]; [10],48
same,bacteria count 6 mo after adding APDEA,[1]; [10],79
same,bacteria count 1 d after adding APDEA,[1]; [10],29
same,bacteria count 1 mo after adding APDEA,[1]; [11],50
same,bacteria count 1 wk after adding APDEA,[1]; [11],116
same,bacteria count 3 mo after adding APDEA,[1]; [11],38.8
same,bacteria count 6 mo after adding APDEA,[1]; [11],22
same,bacteria count 1 d after adding APDEA,[1]; [11],59
same,bacteria count 1 mo after adding APDEA,[1]; [12],98
same,bacteria count 1 wk after adding APDEA,[1]; [12],95
same,bacteria count 3 mo after adding APDEA,[1]; [12],177
same,bacteria count 6 mo after adding APDEA,[1]; [12],93
same,bacteria count 1 d after adding APDEA,[1]; [12],71
same,biocidal effect as sole biocide,[1]; 0.5 and 1 wt % to water phase,effects similar to NBDA
same,bacteria count 1 mo after adding APDEA,[1]; [13],78
same,bacteria count 1 wk after adding APDEA,[1]; [13],80
same,bacteria count 3 mo after adding APDEA,[1]; [13],134
same,bacteria count 6 mo after adding APDEA,[1]; [13],167
same,bacteria count 1 d after adding APDEA,[1]; [13],66
same,bacteria count 1 mo after adding APDEA,[1]; [14],100
same,bacteria count 1 wk after adding APDEA,[1]; [14],22.4
same,bacteria count 3 mo after adding APDEA,[1]; [14],99
same,bacteria count 6 mo after adding APDEA,[1]; [14],132
same,bacteria count 1 d after adding APDEA,[1]; [14],12
same,bacteria count 1 mo after adding APDEA,[1]; [15],110
same,bacteria count 1 wk after adding APDEA,[1]; [15],115
same,bacteria count 3 mo after adding APDEA,[1]; [15],98
same,bacteria count 6 mo after adding APDEA,[1]; [15],38
same,bacteria count 1 d after adding APDEA,[1]; [15],75
same,bacteria count 1 mo after adding APDEA,[1]; [16],98
same,bacteria count 1 wk after adding APDEA,[1]; [16],81
same,bacteria count 3 mo after adding APDEA,[1]; [16],92
same,bacteria count 6 mo after adding APDEA,[1]; [16],98
same,bacteria count 1 d after adding APDEA,[1]; [16],69
same,bacteria count 1 mo after adding APDEA,[1]; [17],33
same,bacteria count 1 wk after adding APDEA,[1]; [17],18
same,bacteria count 3 mo after adding APDEA,[1]; [17],78
same,bacteria count 6 mo after adding APDEA,[1]; [17],20
same,bacteria count 1 d after adding APDEA,[1]; [17],45
same,bacteria count 1 mo after adding APDEA,[1]; [18],75
same,bacteria count 1 wk after adding APDEA,[1]; [18],136
same,bacteria count 3 mo after adding APDEA,[1]; [18],151
same,bacteria count 6 mo after adding APDEA,[1]; [18],35
same,bacteria count 1 d after adding APDEA,[1]; [18],72
same,solubility in water (words),[2],water soluble
"[Cl-].[Na+] [NaCl, reference compound]","LD50 (rat, oral)",[3],3000 mg
"CCCCCCCCN(CCO)CCO [2,2′-(octylimino)bisethanol]",bacteria count,"[4]; 0.50%, 1 day after adding additive",226
same,bacteria count,"[4]; 0.50%, after 1 month",20
same,bacteria count,"[4]; 0.50%, after 1 week",20
same,bacteria count,"[4]; 0.50%, after 3 months",282
same,bacteria count,"[4]; 0.50%, after 6 months",0
same,bacteria count,"[4]; 1.00%, 1 day after adding additive",174
same,bacteria count,"[4]; 1.00%, after 1 month",155
same,bacteria count,"[4]; 1.00%, after 1 week",180
same,bacteria count,"[4]; 1.00%, after 3 months",0
same,bacteria count,"[4]; 1.00%, after 6 months",0
same,effectiveness as a biocide,"[4]; as low concentration as 0.50%, all three test solutions, long term (at least 6 months)",highly effective as a biocide
same,solubility in water,[2],1400 µg/mL
same,solubility in water (words),[2],water dispersible
same,BSI (1 day after adding additive),[5]; [19],18
same,BSI (after 1 month),[5]; [19],47
same,BSI (after 1 week),[5]; [19],14
same,BSI (after 3 months),[5]; [19],75
same,BSI (after 9 months),[5]; [19],90.8
same,bacteria count (1 day after adding additive),[5]; [19],917
same,bacteria count (after 1 month),[5]; [19],360
same,bacteria count (after 1 week),[5]; [19],5040
same,bacteria count (after 3 months),[5]; [19],28.5
same,bacteria count (after 6 months),[5]; [19],0
same,bacteria count (after 9 months),[5]; [19],7.5
same,BSI (1 day after adding additive),[5]; [20],18
same,BSI (after 1 month),[5]; [20],80
same,BSI (after 1 week),[5]; [20],13
same,BSI (after 3 months),[5]; [20],53.1
same,BSI (after 6 months),[5]; [20],55.6
same,BSI (after 9 months),[5]; [20],39.2
same,bacteria count (1 day after adding additive),[5]; [20],369
same,bacteria count (after 1 month),[5]; [20],2.6
same,bacteria count (after 1 week),[5]; [20],141
same,bacteria count (after 3 months),[5]; [20],20.7
same,bacteria count (after 6 months),[5]; [20],5.86
same,bacteria count (after 9 months),[5]; [20],10.5
same,BSI (1 day after adding additive),[6]; 0.50% in K-Oleate,29
same,BSI (after 1 month),[6]; 0.50% in K-Oleate,68
same,BSI (after 1 week),[6]; 0.50% in K-Oleate,52
same,BSI (after 3 months),[6]; 0.50% in K-Oleate,80.1
same,BSI (after 9 months),[6]; 0.50% in K-Oleate,81.3
same,bacteria count (1 day after adding additive),[6]; 0.50% in K-Oleate,789
same,bacteria count (after 1 month),[6]; 0.50% in K-Oleate,215
same,bacteria count (after 1 week),[6]; 0.50% in K-Oleate,758
same,bacteria count (after 3 months),[6]; 0.50% in K-Oleate,88
same,bacteria count (after 6 months),[6]; 0.50% in K-Oleate,0
same,bacteria count (after 9 months),[6]; 0.50% in K-Oleate,30
same,BSI (1 day after adding additive),[6]; 1.00% in K-Oleate,35
same,BSI (after 1 month),[6]; 1.00% in K-Oleate,71
same,BSI (after 1 week),[6]; 1.00% in K-Oleate,43
same,BSI (after 3 months),[6]; 1.00% in K-Oleate,82.4
same,BSI (after 6 months),[6]; 1.00% in K-Oleate,30.6
same,BSI (after 9 months),[6]; 1.00% in K-Oleate,88.8
same,bacteria count (1 day after adding additive),[6]; 1.00% in K-Oleate,284
same,bacteria count (after 1 month),[6]; 1.00% in K-Oleate,50
same,bacteria count (after 1 week),[6]; 1.00% in K-Oleate,176
same,bacteria count (after 3 months),[6]; 1.00% in K-Oleate,39
same,bacteria count (after 6 months),[6]; 1.00% in K-Oleate,629
same,bacteria count (after 9 months),[6]; 1.00% in K-Oleate,13
